Legend:
Type in all cases: functional
Bacillus subtilis = assay: Antimicrobial activity against Bacillus subtilis 3610 at 0.1 ug measured at 24 hrs by agar diffusion assay; details: Bacillus subtilis, 3610, 24 h; read-out: DIZ
Pseudonocardia [1] = assay: Antimicrobial activity against Pseudonocardia 17SE-8 at 0.1 ug measured on day 5 by agar diffusion assay; details: 17SE-8, 120 h, read-out: DIZ
Pseudonocardia [2] = assay: Antimicrobial activity against Pseudonocardia PLR1 at 0.1 ug measured on day 5 by agar diffusion assay; details: PLR1, 120 h, read-out: DIZ
Pseudonocardia [3] = assay: Antimicrobial activity against Pseudonocardia 17SM-1 at 0.1 ug measured on day 5 by agar diffusion assay; details: 17SM-1, 120 h, read-out: DIZ
Candida albicans = assay: Antimicrobial activity against Candida albicans SC5314 at 0.1 ug measured at 24 hrs by agar diffusion assay; details: SC5314, 24 h, read-out: DIZ
Pseudonocardia [4] = assay: Antimicrobial activity against Pseudonocardia 17SE-9 at 0.1 ug measured on day 5 by agar diffusion assay; details: 17SE-9, 120 h, read-out: DIZ
Pseudonocardia [5] = assay: Antimicrobial activity against Pseudonocardia 17SE-10 at 0.1 ug measured on day 5 by agar diffusion assay; details: 17SE-10, 120 h, read-out: DIZ
Escovopsis sp. = assay: Antimicrobial activity against Escovopsis sp. at 0.1 ug measured on day 5 by agar diffusion assay; details: 120 h, read-out: DIZ
Pseudonocardia [6] = assay: Antimicrobial activity against Pseudonocardia 18AZ-4 at 0.1 ug measured on day 5 by agar diffusion assay; details: 18AZ-4, 120 h, read-out: DIZ
Trichoderma harzianum = assay: Antimicrobial activity against Trichoderma harzianum T22 at 0.1 ug measured on day 5 by agar diffusion assay; details: T22, 120 h, read-out: DIZ
Pseudonocardia [7] = assay: Antimicrobial activity against Pseudonocardia 18PO-3 at 0.1 ug measured on day 5 by agar diffusion assay; details: 18PO-3, 120 h, read-out: DIZ

With `C=C(NC(=O)C(=C)NC(=O)c1csc(-c2ccc3c(n2)-c2csc(n2)-c2csc(n2)[C@@H]2C(C)C[C@H](O)N2C(=O)[C@H](Cc2ccc(O)cc2)NC(=O)C2CSC(=N2)[C@H](Cc2ccccc2)NC(=O)c2csc(n2)[C@H](CC(N)=O)NC(=O)c2nc-3oc2C)n1)C(=O)O` (stereo partly specified) the zone of inhibition at 0.1 µg/disc (Bacillus subtilis) was 9.7 mm, the zone of inhibition at 0.1 µg/disc (Pseudonocardia [1]) was 18.7 mm and the zone of inhibition at 0.1 µg/disc (Pseudonocardia [2]) was 18 mm. The zone of inhibition at 0.1 µg/disc (Pseudonocardia [3]) was 28.3 mm, the zone of inhibition at 0.1 µg/disc (Candida albicans) was 0 mm and the zone of inhibition at 0.1 µg/disc (Pseudonocardia [4]) was 0 mm. It also gave a zone of inhibition at 0.1 µg/disc (Pseudonocardia [5]) of 13.7 mm, a zone of inhibition at 0.1 µg/disc (Escovopsis sp.) of 0 mm and a zone of inhibition at 0.1 µg/disc (Pseudonocardia [6]) of 23 mm. For the same compound, the zone of inhibition at 0.1 µg/disc (Trichoderma harzianum) was 0 mm and the zone of inhibition at 0.1 µg/disc (Pseudonocardia [7]) was 20 mm.
